Source: patent publication US6673345B2, “Anti-parasite astacin metalloendopeptidase antibodies” (Heska Corporation, priority 1994, dated 2004)
Entries after “also recorded” stand apart in the source; their conditions may differ.

Tests used:
astacin = astacin (Astacus astacus, UniProt P07584); settings: cited from earlier work
D. immitis larvae (L3) = assay: Effect of protease inhibitors on D. immitis larval molting in culture; assay type: cell-based, Dirofilaria immitis; settings: for % reduction (of molt versus control): 72 hours; for % molt: L3 in NI medium, evaluated at 72 hours, control 82.6; for Observed movement and condition of treated larvae compared to controls: observed daily throughout the study; for Effect on ability of larvae to molt (in words): treatment of L3, ANOVA overall P=0.0001
[1] = system: ES proteins displaying metalloprotease activity (about 60 kD, about 95 kD, at least about 200 kD); settings: 2 mM EDTA in reaction buffer, about 37° C., 66 hours

Sequence of astacin (P07584 50-249 limits assumed): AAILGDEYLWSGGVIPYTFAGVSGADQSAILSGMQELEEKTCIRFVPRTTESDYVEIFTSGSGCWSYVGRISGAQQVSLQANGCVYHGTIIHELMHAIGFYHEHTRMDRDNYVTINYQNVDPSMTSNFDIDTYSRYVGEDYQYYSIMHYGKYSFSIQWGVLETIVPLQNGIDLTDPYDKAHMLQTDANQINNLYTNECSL

c1cnc2c(c1)ccc1cccnc12 [1,10-phenanthroline]
Inhibition of astacin activity (astacin): inhibited

CC(C)C[C@H](NC(=O)[C@@H](O)[C@H](N)Cc1ccccc1)C(=O)O [Bestatin]
% reduction (of molt versus control) (D. immitis larvae (L3); 1.0 mM inhibitor): 27.3% | % molt (D. immitis larvae (L3); 1.0 mM inhibitor): 60.0% | % reduction (of molt versus control) (D. immitis larvae (L3); 2.5 mM inhibitor): 57.9% | % molt (D. immitis larvae (L3); 2.5 mM inhibitor): 34.8% | % reduction (of molt versus control) (D. immitis larvae (L3); 5.0 mM inhibitor): 94.1% | % molt (D. immitis larvae (L3); 5.0 mM inhibitor): 4.9% | Observed movement and condition of treated larvae compared to controls (D. immitis larvae (L3)): moved much more slowly | Effect on ability of larvae to molt (in words) (D. immitis larvae (L3)): significantly reduces the ability of the larvae to molt

O=C(O)CN(CCN(CC(=O)O)CC(=O)O)CC(=O)O [EDTA, ethylene diamine tetraacetic acid]
Inhibition of ES metalloprotease (collagenase) activity [1]: completely inhibited | Inhibition of astacin activity (astacin): inhibited

CC(C)C[C@H](NP(=O)(O)O[C@@H]1O[C@@H](C)[C@H](O)[C@@H](O)[C@H]1O)C(=O)N[C@@H](Cc1c[nH]c2ccccc12)C(=O)O [Phosphoramidon]
% reduction (of molt versus control) (D. immitis larvae (L3); 1.0 mM inhibitor): 48.4% | % molt (D. immitis larvae (L3); 1.0 mM inhibitor): 42.6% | % reduction (of molt versus control) (D. immitis larvae (L3); 2.5 mM inhibitor): 85.1% | % molt (D. immitis larvae (L3); 2.5 mM inhibitor): 12.3% | % reduction (of molt versus control) (D. immitis larvae (L3); 5.0 mM inhibitor): 100.0% | % molt (D. immitis larvae (L3); 5.0 mM inhibitor): 0.0% | Observed movement and condition of treated larvae compared to controls (D. immitis larvae (L3)): very active; also recorded: in poor shape by the end of the study | Effect on ability of larvae to molt (in words) (D. immitis larvae (L3)): significantly reduces the ability of the larvae to molt

TIMP1: Tissue inhibitor of metalloproteinases, protein inhibitor of zinc endopeptidases
Inhibition of astacin activity (astacin): do not demonstrate inhibitory activity
